Measured values published in patent publication US8633206B2, “Pyrrolo[2,3-D]pyrimidine compounds” (Pfizer Inc., priority 2009, dated 2014).

Tests used:
Assay type in all cases: biochemical
JAK3 = JAK3 (Homo sapiens (Human), UniProt P52333); test: JAK enzymatic assay (peptide mobility shift), JAK3; conditions: recombinant JAK3 1 nM, JAKtide peptide, 90 minutes
Experimental: (§1) Recombinant JAK1 (Catalog Number PV4775), JAK2 (Catalog Number PV4210) and JAK3 (Catalog Number PV3855) were purchased from (Invitrogen Corporation, Madison, Wis.). […] Adenosine 5′-triphosphate (ATP) was obtained from (Sigma Chemical Company, St. Louis, Mo.). […] Coating Reagent 3 was purchased from (Caliper Life Sciences, Hopkinton, Mass.).
(§2) Compounds were diluted serially in 100% dimethyl sulfoxide and tested in an 11 point dose response in duplicate or quadruplicate (200 nl of compound/DMSO was added per 10 L reaction). […] The assay was run for 240 minutes for JAK1, 150 minutes for JAK2, 90 minutes for JAK3 and 70 minutes for Tyk2. […] The plates were placed on a LabChip 3000 (LC3000) instrument from (Caliper Life Sciences) to measure the formation of phosphorylated peptide. Data was analyzed using Hits Well Analyzer Software from (Caliper Life Sciences) to obtain the amount of product formed.
(§3) Data was then imported into an internal application where each data point is expressed as % inhibition based on uninhibited and no enzyme controls. Dose-response data is then fit using a 4 parameter logistic equation (Equation 1) to determine an IC50.

JAK2 = JAK2 (Homo sapiens (Human), UniProt O60674); test: JAK enzymatic assay (peptide mobility shift), JAK2; conditions: recombinant JAK2 2 nM, JAKtide peptide, 150 minutes
Excerpt: Recombinant JAK1 (Catalog Number PV4775), JAK2 (Catalog Number PV4210) and JAK3 (Catalog Number PV3855) were purchased from (Invitrogen Corporation, Madison, Wis.). Tyk2 (His-Tyk2 (888-1182, C936S, C1142S)) used in this study was expressed and purified at Pfizer Laboratories. Adenosine 5′-triphosphate (ATP) was obtained from (Sigma Chemical Company, St. Louis, Mo.). […] Coating Reagent 3 was purchased from (Caliper Life Sciences, Hopkinton, Mass.).
A peptide mobility shift assay was used to quantify the phosphorylation of the JAKtide (JAK2 and JAK3) or the IRS-1 peptide (JAK1 and Tyk2). Reactions were carried out in a 384-well plate (Matrical MP-101) in a 10 L total volume. […] Compounds were diluted serially in 100% dimethyl sulfoxide and tested in an 11 point dose response in duplicate or quadruplicate (200 nl of compound/DMSO was added per 10 L reaction). The reactions were initiated by the addition of enzyme to the final concentration of 2 nM JAK2, 1 nM JAK3, 12 nM Tyk2 or 20 nM JAK1. The assay was run for 240 minutes for JAK1, 150 minutes for JAK2, 90 minutes for JAK3 and 70 minutes for Tyk2. The assays were stopped at the specified times with 20 uL of 140 mM HEPES, 22.5 mM EDTA and 0.15% Coating Reagent 3. The plates were placed on a LabChip 3000 (LC3000) instrument from (Caliper Life Sciences) to measure the formation of phosphorylated peptide. Data was analyzed using Hits Well Analyzer Software from (Caliper Life Sciences) to obtain the amount of product formed.
as §3

JAK1 = JAK1 (Homo sapiens (Human), UniProt P23458); test: JAK enzymatic assay (peptide mobility shift), JAK1; conditions: recombinant JAK1 20 nM, IRS-1 peptide, 240 minutes
Experimental: as §1, §2, §3

Chain of JAK1 (P23458 whole entry): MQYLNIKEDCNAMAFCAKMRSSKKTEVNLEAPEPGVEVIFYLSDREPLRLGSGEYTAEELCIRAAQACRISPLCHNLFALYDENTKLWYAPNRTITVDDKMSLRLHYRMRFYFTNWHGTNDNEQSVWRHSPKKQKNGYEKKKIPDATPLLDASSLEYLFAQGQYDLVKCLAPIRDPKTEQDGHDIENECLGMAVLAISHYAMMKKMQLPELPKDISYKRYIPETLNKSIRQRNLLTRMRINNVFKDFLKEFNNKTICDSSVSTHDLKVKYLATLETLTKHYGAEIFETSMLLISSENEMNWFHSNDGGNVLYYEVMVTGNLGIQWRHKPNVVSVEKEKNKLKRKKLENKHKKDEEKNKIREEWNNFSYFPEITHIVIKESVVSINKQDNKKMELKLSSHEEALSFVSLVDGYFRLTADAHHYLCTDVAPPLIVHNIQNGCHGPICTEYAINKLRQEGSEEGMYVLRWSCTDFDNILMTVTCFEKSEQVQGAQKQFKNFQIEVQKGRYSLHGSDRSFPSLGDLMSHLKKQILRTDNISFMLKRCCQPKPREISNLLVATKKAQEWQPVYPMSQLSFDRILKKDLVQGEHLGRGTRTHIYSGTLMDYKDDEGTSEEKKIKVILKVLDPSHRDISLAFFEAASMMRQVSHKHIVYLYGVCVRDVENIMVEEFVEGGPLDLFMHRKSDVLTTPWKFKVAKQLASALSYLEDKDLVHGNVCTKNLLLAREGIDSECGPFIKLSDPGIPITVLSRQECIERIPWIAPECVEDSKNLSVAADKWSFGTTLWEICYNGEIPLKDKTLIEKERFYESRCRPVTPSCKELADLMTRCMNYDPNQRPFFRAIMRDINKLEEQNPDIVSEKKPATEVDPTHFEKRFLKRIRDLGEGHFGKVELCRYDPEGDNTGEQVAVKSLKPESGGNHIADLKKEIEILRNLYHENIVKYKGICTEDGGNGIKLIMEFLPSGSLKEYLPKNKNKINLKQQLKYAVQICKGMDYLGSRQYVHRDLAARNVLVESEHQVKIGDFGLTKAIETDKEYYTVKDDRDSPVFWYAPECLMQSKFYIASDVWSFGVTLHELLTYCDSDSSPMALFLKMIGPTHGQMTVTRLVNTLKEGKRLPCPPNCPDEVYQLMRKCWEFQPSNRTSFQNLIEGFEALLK
Chain of JAK2 (O60674 808-1132): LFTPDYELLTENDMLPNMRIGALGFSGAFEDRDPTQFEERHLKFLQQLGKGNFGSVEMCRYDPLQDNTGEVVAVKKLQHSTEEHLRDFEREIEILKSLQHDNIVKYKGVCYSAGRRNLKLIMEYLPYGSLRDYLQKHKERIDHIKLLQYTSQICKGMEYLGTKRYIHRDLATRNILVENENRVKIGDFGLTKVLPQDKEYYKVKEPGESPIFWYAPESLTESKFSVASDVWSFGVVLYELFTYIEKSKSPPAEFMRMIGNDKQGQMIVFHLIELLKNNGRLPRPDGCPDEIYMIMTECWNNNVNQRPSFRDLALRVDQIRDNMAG
Chain of JAK3 (P52333 781-1124): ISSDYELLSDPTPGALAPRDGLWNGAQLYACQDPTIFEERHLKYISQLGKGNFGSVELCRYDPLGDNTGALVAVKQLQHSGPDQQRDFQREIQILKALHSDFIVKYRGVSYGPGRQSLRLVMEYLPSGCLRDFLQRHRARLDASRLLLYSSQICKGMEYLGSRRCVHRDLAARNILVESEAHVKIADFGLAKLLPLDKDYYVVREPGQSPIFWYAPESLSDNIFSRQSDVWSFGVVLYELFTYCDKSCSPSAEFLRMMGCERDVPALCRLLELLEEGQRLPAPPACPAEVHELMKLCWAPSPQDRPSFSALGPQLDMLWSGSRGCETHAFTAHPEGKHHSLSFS

SMILES	IC50 (JAK3) [nM]	IC50 (JAK2) [nM]	IC50 (JAK1) [nM]
CN(c1ncnc2[nH]ccc12)[C@H]1CC[C@H](CS(=O)(=O)N2CCN(c3ncccc3C#N)CC2)CC1 [Example 122, 2-{4-[({trans-4-[methyl(7H-pyrrolo[2,3-d]pyrimidin-4-yl)amino]cyclohexyl}-methyl)sulfonyl]piperazin-1-yl}nicotinonitrile]	271	17.6	12.1
CN(c1ncnc2[nH]ccc12)[C@H]1CC[C@H](CS(=O)(=O)N2CC[C@@](O)(COc3cccc(F)c3)C2)CC1 [Example 84, 3-[(3-fluorophenoxy)-methyl]-1-[({trans-4-[methyl(7H-pyrrolo[2,3-d]-pyrimidin-4-yl)amino]-cyclohexyl}methyl)sulfonyl] pyrrolidin-3-ol]	132	26.2	3.12
CC(C)COC1CCCN(S(=O)(=O)C[C@H]2CC[C@H](N(C)c3ncnc4[nH]ccc34)CC2)C1 (stereo partly drawn) [Example 138, N-(trans-4-{[(3-isobutoxypiperidin-1-yl)sulfonyl]methyl}cyclohexyl)-N-methyl-7H-pyrrolo[2,3-d]pyrimidin-4-amine]	0.132	0.00767	0.00133
CN1CCN(S(=O)(=O)C[C@H]2CC[C@H](N(C)c3ncnc4[nH]ccc34)CC2)CC1 [Example 136, N-methyl-N-(trans-4-{[(4-methylpiperazin-1-yl)sulfonyl]methyl}cyclohexyl)-7H-pyrrolo[2,3-d]pyrimidin-4-amine]	1.29	0.109	0.0245
CN(c1ncnc2[nH]ccc12)[C@H]1CC[C@H](CS(=O)(=O)N2CCCC(COc3ccc(F)cc3)C2)CC1 (stereo partly drawn) [Example 15, N-{trans-4-[({3-[(4-fluoro-phenoxy)methyl]piperidin-1-yl}sulfonyl)methyl]-cyclohexyl}-N-methyl-7H-pyrrolo[2,3-d]pyrimidin-4-amine]	10000	32	5.91
CCN1CCN(C[C@H]2CCN(S(=O)(=O)C[C@H]3CC[C@H](N(C)c4ncnc5[nH]ccc45)CC3)C2)C(=O)C1=O [Example 105, 1-ethyl-4-({1-[({trans-4-[methyl(7H-pyrrolo[2,3-d]pyrimidin-4-yl)amino]cyclohexyl}methyl)-sulfonyl]pyrrolidin-3-yl}methyl)piperazine-2,3-dione]	755	90.4	17.8
CN(c1ncnc2[nH]ccc12)[C@H]1CC[C@H](CS(=O)(=O)N2CC[C@H](O)[C@H](O)C2)CC1 [Example 22, (3R,4S)-1-[({trans-4-[methyl(7H-pyrrolo[2,3-d]pyrimidin-4-yl)amino]-cyclohexyl}methyl)sulfonyl]-piperidine-3,4-diol]	138	32.5	11.5
CN(c1ncnc2[nH]ccc12)[C@H]1CC[C@H](CS(=O)(=O)N2CC[C@](O)(c3ccccn3)C2)CC1 [Example 103, 1-[({trans-4-[methyl(7H-pyrrolo[2,3-d]pyrimidin-4-yl)-amino]cyclohexyl}-methyl)sulfonyl]-3-pyridin-2-ylpyrrolidin-3-ol]	294	35.8	10.6
Cc1cccc(C[C@H]2CCCN2S(=O)(=O)C[C@H]2CC[C@H](N(C)c3ncnc4[nH]ccc34)CC2)n1 [Example 106, N-methyl-N-{trans-4-[({2-[(6-methylpyridin-2-yl)methyl]pyrrolidin-1-yl}sulfonyl)methyl]cyclo-hexyl}-7H-pyrrolo[2,3-d]pyrimidin-4-amine]	322	24.3	3.6
COC[C@H]1CCCN1S(=O)(=O)C[C@H]1CC[C@H](N(C)c2ncnc3[nH]ccc23)CC1 [Example 69, N-[trans-4-({[(2R)-2-(methoxymethyl)pyrrolidin-1-yl]sulfonyl}methyl)-cyclohexyl]-N-methyl-7H-pyrrolo[2,3-d]pyrimidin-4-amine]	370	56.2	9.55
CCN(CC)C(=O)CO[C@@H]1CCN(S(=O)(=O)C[C@H]2CC[C@H](N(C)c3ncnc4[nH]ccc34)CC2)C1 [Example 101, N,N-diethyl-2-({(3R)-1-[({trans-4-[methyl(7H-pyrrolo[2,3-d]pyrimidin-4-yl)amino]cyclohexyl}-methyl)sulfonyl]pyrrolidin-3-yl}oxy)acetamide]	584	35.9	4.86
COc1ccccc1CS(=O)(=O)[C@H]1CCN(S(=O)(=O)C[C@H]2CC[C@H](N(C)c3ncnc4[nH]ccc34)CC2)C1 [Example 89, N-{trans-4-[({3-[(2-methoxybenzyl)sulfonyl]-pyrrolidin-1-yl}sulfonyl)-methyl]cyclohexyl}-N-methyl-7H-pyrrolo[2,3-d]-pyrimidin-4-amine]	96.6	17.5	4.45
CN(c1ncnc2[nH]ccc12)[C@H]1CC[C@H](CS(=O)(=O)N2CCC[C@@](C)(CO)C2)CC1 [Example 63, {3-methyl-1-[({trans-4-[methyl(7H-pyrrolo[2,3-d]-pyrimidin-4-yl)amino]-cyclohexyl}methyl)sulfonyl]piperidin-3-yl}methanol]	554	50.7	8.88
CN(c1ncnc2[nH]ccc12)[C@H]1CC[C@H](CS(=O)(=O)N2CC[C@H](c3ccccn3)C2)CC1 [Example 107, N-methyl-N-(trans-4-{[(3-pyridin-2-ylpyrrolidin-1-yl)sulfonyl]methyl}cyclo-hexyl)-7H-pyrrolo[2,3-d]pyrimidin-4-amine]	36.3	6.22	2.54
CN(c1ncnc2[nH]ccc12)[C@H]1CC[C@H](CS(=O)(=O)N2CC[C@@H](F)C2)CC1 [Example 34, N-[trans-4-({[(3R)-3-fluoropyrrolidin-1-yl]sulfonyl}methyl)cyclo-hexyl]-N-methyl-7H-pyrrolo-[2,3-d]pyrimidin-4-amine]	217	16.7	7.35
Cc1cc(CC[C@]2(O)CCN(S(=O)(=O)C[C@H]3CC[C@H](N(C)c4ncnc5[nH]ccc45)CC3)C2)on1 [Example 85, 3-[2-(3-methylisoxazol-5-yl)ethyl]-1-[({trans-4-[methyl(7H-pyrrolo[2,3-d]-pyrimidin-4-yl)amino]-cyclohexyl}methyl)sulfonyl] pyrrolidin-3-ol]	286	46.2	10.5
CN(C)S(=O)(=O)C[C@H]1CCCN(S(=O)(=O)C[C@H]2CC[C@H](N(C)c3ncnc4[nH]ccc34)CC2)C1 [Example 57, N,N-dimethyl-1-{1-[({trans-4-[methyl(7H-pyrrolo[2,3-d]pyrimidin-4-yl)amino]-cyclohexyl}methyl)sulfonyl]piperidin-3-yl}-methanesulfonamide]	453	50.8	7.7
CN(c1ncnc2[nH]ccc12)[C@H]1CC[C@H](CS(=O)(=O)N2CC[C@H](COCc3cccnc3)C2)CC1 [Example 96, N-methyl-N-{trans-4-[({3-[(pyridin-3-ylmethoxy)-methyl]pyrrolidin-1-yl}-sulfonyl)methyl]-cyclohexyl}-7H-pyrrolo[2,3-d]pyrimidin-4-amine]	462	32.1	19.3
